Measurements reported in patent US9206448B2, “Extraction solvents derived from oil for alcohol removal in extractive fermentation” (Butamax Advanced Biofuels LLC, priority 2010, dated 2015).
“And” between values parts separate entries of the source, which are not always exact repeats. Equal values may be shown once.

Tests used:
[1] = test system: strain NGCI-070; experiment: Extractive fermentation, examples GLNOR661A-666A, 690A-695A, 721A-726A, 749A-754A; settings: pH 5.5, fermentation broth
Experimental: (§1) Fermentation conditions: 30% pO2; temperature: 30° C.; pH 5.5 (unless noted otherwise); initial batch glucose: 20 g/L, maintained during production.
(§2) Both HPLC and GC analyses were used for the quantization of isobutanol in the aqueous phase and solvent phase respectively. Isobutanol in the aqueous was measured after filtration through a 0.2 um nylon filter with a HPLC (Agilent 1100, Agilent, Santa Clara, Calif.) under the following conditions: • Column: Bio-Rad, Aminex HPX-87H, No. 125-0143 • Mobile Phase: […] • Injection Volume: 10 uL • Flow Rate: 0.6 mL/min • Run Time: 22.5 minutes • Column Temperature: 65° C. • Detectors: Refractive Index • Detector Temperature: 40° C. • UV Detection: 210 nm, 4 nm bandwidth, Ref 360 nm, 100 nm bandwidth.
(§3) The solvent phase was measured with a GC (HP6890, Agilent, Santa Clara, Calif.) under the following conditions: • Column: J&W Scientific DB Waxter (50 m×0.32 mm ID, 1 um film) • Gas Carrier: Helium 4 mL/min • Injection Volume: 2 uL • Make Up Flow Rate: 40 mL/min • Run Time: 29 minutes • Oven Temperature: 40° C. for 5 min, 40° C. to 230° C. @10° C./min., 5 min 230° C. • Injector Split: 1:5 @ 250° C. • Flame Ionization Detection: 250° C.
(§4) The extractants were added to the fermentor broth at time zero exposing the culture to the solvent for the duration of the fermentation. Isobutanol concentrations in both the aqueous phase and organic phase were measured to calculate the partitioning coefficient of the extraction solvent. Glucose utilization was used to determine the biocompatability of the microorganism to the extractant.
(§5) The fermentations were carried out as described with the strain NGCI-065. The inoculum was prepared in two stages and incubated at 30° C. and 250 rpm in an incubator shaker (Innova 4200, New Brunswick Scientific, Edison, N.J.). The first stage or pre-seed was inoculated from a frozen glycerol seed stock, two vials were placed into a 250 mL flask with 30 mL of filter sterilized pre-seed media (Table 4) and grown for 24 hours to an OD of approximately 2. 15 mL of the pre-seed was then transferred to a 2 L flask with 270 mL of filter sterilized seed media (Table 5) for the second stage which was incubated for 24 hours. 30 mL of filter sterilized 10× YEP and 300 mL of filter sterilized 90-95% oleyl alcohol was then added and incubated for an additional 24 hours to a final OD of approximately 5-10 in the aqueous phase of the seed culture. For examples GLNOR639 and GLNOR640, the pH was 4.5.
Fermentation vessels (Applikon AD1010 Bioreactor, Applikon Biotechnology, Dover, N.J.) were sterilized with diH2O for 30 minutes (Amsco Renaissance 3033 Revas Steam Sterilizer, Steris Corporation, Mentor, Ohio). Once the vessels were finished sterilization in the autoclave and cooled to 30° C., the sterile diH2O was removed and the filter sterilized fermentation media was added to a volume of 280 mL. 70 mL of the aqueous phase from the second stage seed flasks was added to the fermentation vessel for a final aqueous volume of 350 mL. Immediately after inoculation, 100 mL of 10× YEP media supplementation was added as well as 450 mL of the respective extraction solvent for a final solvent to broth ratio of approximately 1:1. Fermentation set-point conditions were temperature 30° C., pO2 30%, pH 5.5 for GLNOR635A-638A and pH 4.5 for GLNOR639A-640A. The fermentation was sampled approximately every 8 hours from the time of inoculation to monitor glucose concentration, which was maintained between 5-20 g/L through the addition of 50% w/w glucose solution, and analyzed for isobutanol accumulation in both the aqueous phase and the extractant phase. Enough sample volume was taken at each time point to obtain a sample from both of the phases, then those samples were centrifuged in order to ensure a clean cut of each.
The examples in this set were performed the same as in the previous examples GLNOR635A-640A with the exception of the strain, pH, and supplement addition at time zero.

[2] = test system: strain NGCI-065; experiment: Extractive fermentation, examples GLNOR635A-640A
Experimental: as §1, §2, §3, §4, §5
Fermentation vessels (Applikon AD1010 Bioreactor, Applikon Biotechnology, Dover, N.J.) were sterilized with diH2O for 30 minutes (Amsco Renaissance 3033 Revas Steam Sterilizer, Steris Corporation, Mentor, Ohio). Once the vessels were finished sterilization in the autoclave and cooled to 30° C., the sterile diH2O was removed and the filter sterilized fermentation media was added to a volume of 280 mL. 70 mL of the aqueous phase from the second stage seed flasks was added to the fermentation vessel for a final aqueous volume of 350 mL. […] The fermentation was sampled approximately every 8 hours from the time of inoculation to monitor glucose concentration, which was maintained between 5-20 g/L through the addition of 50% w/w glucose solution, and analyzed for isobutanol accumulation in both the aqueous phase and the extractant phase. […]

[3] = test system: Saccharomyces butanologen NGCI-070; experiment: Shake flask incubation with fermentation broth, glucose consumption followed over time; assay type: cell-based, Saccharomyces cerevisiae; settings: 3 parts broth to 1 part extractant
Experimental: Fatty amide/fatty acid aqueous ammonia preparation (1), and a preparation (1 a) constituted by preparation (1) mixed 1:1 with pure corn oil fatty acid (equivalent to 1:2 fatty amide:fatty acid) were incubated in shake flasks with fermentation broth containing the Saccharomyces butanologen NGCI-070 at a ratio of 3 parts broth to 1 part amide/acid mixture. […] Starting at a glucose concentration of 8.35 g/L, the shake flasks were then incubated for 25 h on an incubator shaker and the consumption of glucose followed as a function of time.

With `CCCCCCC(CO)CCCC` (stereo not drawn) [Isofol ™ 12, 2-butyl-1-octanol] the “Kp (solvent partition coefficient)” value ([1]; listed as GLNOR749) was 4.05 and the “Kp (solvent partition coefficient)” value ([1]; listed as GLNOR750) was 4.22.
`CCCCCCCC/C=C\CCCCCCCC(=O)O` [Oleic Acid] was tested, and the “Kp (solvent partition coefficient)” value ([1]; listed as GLNOR665) was 2.61, the “Kp (solvent partition coefficient)” value ([1]; listed as GLNOR666) was 2.51 and the “Kp (solvent partition coefficient)” value ([2]; pH 4.5, fermentation broth, listed as GLNOR639) was 2.54. The “Kp (solvent partition coefficient)” value ([2]; pH 4.5, fermentation broth, listed as GLNOR640) was 2.51, the “Kp (solvent partition coefficient)” value ([2]; pH 5.5, fermentation broth, listed as GLNOR637) was 2.64 and the “Kp (solvent partition coefficient)” value ([2]; pH 5.5, fermentation broth, listed as GLNOR638) was 2.56.
In the case of `CCCCCCCC/C=C\CCCCCCCCO` [Oleyl Alcohol], the Glucose conc. ([3]; 18 hrs) is reported as 4.26 g/L and 4.46 g/L, the Glucose conc. ([3]; 25 hrs) is reported as 0 g/L and the Glucose conc. ([3]; Time = 0) is reported as 8.35 g/L. The “Kp (solvent partition coefficient)” value ([1]; listed as GLNOR661) was 3.35, the “Kp (solvent partition coefficient)” value ([1]; listed as GLNOR690) was 3.74 and the “Kp (solvent partition coefficient)” value ([1]; listed as GLNOR691) was 3.77. For the same molecule, the “Kp (solvent partition coefficient)” value ([2]; pH 5.5, fermentation broth) was 3.38.
